Legend:
Format in all cases: in vivo, rat
IDDM SD rats = assay: Antihyperglycemic effect in IDDM SD rats (STZ-induced); settings: 90 min after drug feeding
Description: Resveratrol was first dissolved in DMS0 and diluted to 0.05 mg, 0.1 mg and 0.5 mg per ml wit normal saline. Animals were fed with desired amounts of drug solutions though tubing from the mouth into the stomach. Male rats were fasted for […] and anesthetized by intraperitoneal injection of pentobarbital at 30 mg/kg body weight. Animals were then injected with freshly prepared streptozotocin (STZ) solution at 65 mg/kg body weight intravenously. Three days later, blood sugar was measured. Animals with blood sugar levels above 400 mg/dl and symptoms of polyphagia, polyuria and polydipsia are classified as being induced to IDDM. Normal, IDDM, and NIDDM SD rats were fasted for 8 hrs and anesthetized by pentobarbital (30 mg/kg, ip). Animals were fed with different dosages of resveratrol (0.05 mg, 0.1 mg, or 0.5 mg per kg body weight), and blood samples were then collected from femoral vein at the time points 0, 60, 90, and 120 min. Ten μl plasma was mixed with 1 ml glucose kit reagent and incubated at 37° C. for 10 min. The blood sugar level was determined as described. Data were expressed as mean±standard error (S.E.). […] IDDM SD rats were fed with resveratrol at 0.05 mg, 0.1 mg, or 0.5 mg per kg body weight and the blood sugar was measured at 90 min after drug feeding.

[1] = tested on: NIDDM insulin-resistant SD rats; assay: Antihyperglycemic effect in NIDDM insulin-resistant SD rats (insulin-induced)
Description: Resveratrol was first dissolved in DMS0 and diluted to 0.05 mg, 0.1 mg and 0.5 mg per ml wit normal saline. Animals were fed with desired amounts of drug solutions though tubing from the mouth into the stomach. A. Insulin Resistance: Male SD rats were intraperitoneally injected with insulin (Monotard®HM; Novo Nordisk, Bagsvaerd, Denmark, 0.5 IU/kg, tid) for 2 weeks. The development of insulin resistance is confirmed by a tolbutamide test (11). Normal, IDDM, and NIDDM SD rats were fasted for 8 hrs and anesthetized by pentobarbital (30 mg/kg, ip). Animals were fed with different dosages of resveratrol (0.05 mg, 0.1 mg, or 0.5 mg per kg body weight), and blood samples were then collected from femoral vein at the time points 0, 60, 90, and 120 min. Ten μl plasma was mixed with 1 ml glucose kit reagent and incubated at 37° C. for 10 min. The blood sugar level was determined as described. […]. Data were expressed as mean±standard error (S.E.). Statistical analysis was performed using ANOVA (analysis of variance) followed by Dunnett test, and the significant difference was set at P<0.05. NIDDM rats were fed with resveratrol and blood sugar was then measured as described.

normal SD rats = assay: Hypoglycemic effect in normal SD rats (blood sugar); settings: for reduction of blood sugar: normal SD rats, 90 min after drug feeding
Description: Eight week-old Sprague Dawley (SD) rats (body weight from 200 gm to 250 gm) were maintained in the Animal Center of the Chang (Jung Memorial Hospital, under an ambient temperature of 25±1° C. and a light-dark period of 12 hrs. Animals were fed with normal chow and water. Resveratrol was first dissolved in DMS0 and diluted to 0.05 mg, 0.1 mg and 0.5 mg per ml wit normal saline. Animals were fed with desired amounts of drug solutions though tubing from the mouth into the stomach. Normal, IDDM, and NIDDM SD rats were fasted for 8 hrs and anesthetized by pentobarbital (30 mg/kg, ip). Animals were fed with different dosages of resveratrol (0.05 mg, 0.1 mg, or 0.5 mg per kg body weight), and blood samples were then collected from femoral vein at the time points 0, 60, 90, and 120 min. Ten μl plasma was mixed with 1 ml glucose kit reagent and incubated at 37° C. for 10 min. The blood sugar level was determined as described. […]. Data were expressed as mean±standard error (S.E.). Statistical analysis was performed using ANOVA (analysis of variance) followed by Dunnett test, and the significant difference was set at P<0.05. Male SD rats were fed with resveratrol at 0.05 mg, 0.1 mg, or 0.5 mg per kg body weight and plasma glucose level was measured at 90 min after drug feeding.

[2] = tested on: SD rats injected with insulin; assay: Development of insulin resistance and body weight increase in insulin-injected SD rats
Description: A. Insulin Resistance: Male SD rats were intraperitoneally injected with insulin (Monotard®HM; Novo Nordisk, Bagsvaerd, Denmark, 0.5 IU/kg, tid) for 2 weeks. The development of insulin resistance is confirmed by a tolbutamide test (11). Male SD rats were intraperitoneally injected with insulin at 0.5 IU/kg, tid with or without resveratrol feeding (0.5 mg/kg BW, bid) Animals without resveratrol feeding started to develop insulin resistance on day 16.5±1.5. In contrast, development of insulin resistance in the resveratrol-fed animals was delayed till 23.5±1.5 days. In addition, resveratrol reduced the body weight increase by 6% compared with the untreated insulin-resistant animals (FIG. 6)

NIDDM SD rats = assay: Antihyperglycemic effect in NIDDM SD rats (nicotinamide/STZ-induced); settings: 0.1 mg/kg oral
Description: Resveratrol was first dissolved in DMS0 and diluted to 0.05 mg, 0.1 mg and 0.5 mg per ml wit normal saline. Animals were fed with desired amounts of drug solutions though tubing from the mouth into the stomach. B. NIDDM: Male SD rats were fasted for 48 hrs and anesthetized by intraperitoneal injection of pentobarbital at 30 mg/kg body weight. Animals were then injected with nicotinamide (100 mg/kg, ip) and streptozotocin (65 mg/kg, iv). Four weeks later, plasma glucose concentration was determined by the glucose oxidase method (Chemistry Analyzer; Autoanalyzer Quik-Lab., Ames, Spain). Animals with fasting blood sugar levels around 200 mg/dl and the development of an obese phenotype are classified as being induced to NIDDM. Normal, IDDM, and NIDDM SD rats were fasted for 8 hrs and anesthetized by pentobarbital (30 mg/kg, ip). Animals were fed with different dosages of resveratrol (0.05 mg, 0.1 mg, or 0.5 mg per kg body weight), and blood samples were then collected from femoral vein at the time points 0, 60, 90, and 120 min. Ten μl plasma was mixed with 1 ml glucose kit reagent and incubated at 37° C. for 10 min. The blood sugar level was determined as described. Data were expressed as mean±standard error (S.E.). […] NIDDM rats were fed with resveratrol and blood sugar was then measured as described.

Oc1ccc(C=Cc2cc(O)cc(O)c2)cc1 [resveratrol]
reduction of blood sugar (IDDM SD rats; 0.1 mg/kg oral): 21.00±5.84% | reduction of blood sugar (IDDM SD rats; 0.5 mg/kg oral): 23.00±1.89% | reduction of blood sugar ([1]; NIDDM insulin-resistant SD rats, 0.5 mg/kg oral, 90 min after drug feeding): 32.1±1.62% | hypoglycemic effect, dose dependence ([1]; NIDDM insulin-resistant rats, oral): dose-dependent hypoglycemic effect | reduction of blood sugar (normal SD rats; 0.1 mg/kg oral): 25.72±4.03% | reduction of blood sugar (normal SD rats; 0.5 mg/kg oral): 35.53±2.0% | blood sugar reduction, dose dependence (normal SD rats; normal SD rats, 0.05, 0.1, 0.5 mg/kg oral, 90 min): dose-dependent manner | time to development of insulin resistance ([2]; insulin 0.5 IU/kg ip tid with resveratrol feeding 0.5 mg/kg BW bid, without resveratrol day 16.5±1.5): 23.5 ± 1.5 days | reduction of body weight increase compared with untreated insulin-resistant animals ([2]; insulin-resistant SD rats, resveratrol 0.5 mg/kg BW bid): 6% | reduction of blood sugar (NIDDM SD rats): 28.3±1.67%

From patent US7709539B2, “Therapeutic use of resveratrol for hyperglycemia” (Chang Gung University, priority 2004, dated 2010)
